Experiment [1] relates to SGC-7901 (Gastric) cisplatin sensitive cancer cells. The experiment can be described thus: MTT cytotoxicity assay, SGC-7901 cisplatin sensitive. The class given is cell-based, human. The settings on record: MTT, 3 days; read-out: IC50 SGC-7901 (Gastric) (Cisplatin sensitive). The method, then:
(§1) Cell cultures and cytotoxicity assays have been used. Celastrol was dissolved in DMSO at a final concentration of 100 mmol/L and stored at −20° C. Cytotoxicity was assessed using the 3-(4,5-dimethylthiazol-2-yl)-2,5-diphenyltetrazolium bromide assay. 4000 cells from A2780 cisplatin sensitive/resistant ovarian cancer cells or SGC-7901 cisplatin sensitive/resistant gastric cancer cells were seeded on 96-well plates per well. After overnight pre-incubation, the cells were exposed to different concentrations of celastrol (0.039-100 μmol/L) or cisplatin for 3 days. Subsequently, 10 μL of MTT reagents were added to each well and incubated at 37° C. for 4 hours followed by the addition of 100 μL solubilization buffer (10% SDS in 0.01 mol/L HCl) and overnight incubation. Absorbance at 585 nm was determined from each well the next day. The percentage of cell viability was calculated using the following formula: Cell viability (%)=Cells number treated/Cells number DMSO control×100. Data were obtained from three independent experiments.
(Tetrazolium dyes change colour on reduction, which living cells bring about.)

Experiment [2] has as its system A2780 (Ovary) cisplatin sensitive cancer cells. The experiment can be described thus: MTT cytotoxicity assay, A2780 cisplatin sensitive. The class given is cell-based, human. Particulars: MTT, 3 days; read-out: IC50 A2780 (Ovary) (Cisplatin sensitive). The method, then: as §1
For experiment [3], the system named is SGC-7901 (Gastric) cisplatin resistant cancer cells. The experiment is described as follows: MTT cytotoxicity assay, SGC-7901 cisplatin resistant. The class given is cell-based, human. How it is done:
as §1

In experiment [4] the test system is HCT116 p53+/+ colon cancer cells. The experiment can be described thus: MTT cytotoxicity assay, HCT116 p53+/+. The settings on record: MTT, 3 days; read-out: IC50 HCT116 p53+/+ colon cancer cells. The class given is cell-based. The method, then:
(§2) Cell cultures and cytotoxicity assays have been used. Celastrol was dissolved in DMSO at a final concentration of 100 mmol/L and stored at −20° C. Cytotoxicity was assessed using the 3-(4,5-dimethylthiazol-2-yl)-2,5-diphenyltetrazolium bromide assay. 4000 cells from HCT116 p53^+/+ or p53^−/− colon cancer cells and DLD-1 Bax-Bak^+/+ or Bax-Bak^−/− colon cancer cells were seeded on 96-well plates per well. […] Subsequently, 10 μL of MTT reagents were added to each well and incubated at 37° C. for 4 hours followed by the addition of 100 μL solubilization buffer (10% SDS in 0.01 mol/L HCl) and overnight incubation. […] The percentage of cell viability was calculated using the following formula: Cell viability (%)=Cells number treated/Cells number DMSO control×100. Data were obtained from three independent experiments.

Experiment [5] has as its system A2780 (Ovary) cisplatin resistant cancer cells. The experiment can be described thus: MTT cytotoxicity assay, A2780 cisplatin resistant. The class given is cell-based, human. How it is done:
as §1

Experiment [6] deals with DLD-1 Bax-Bak+/+ colon cancer cells. The experiment can be described thus: MTT cytotoxicity assay, DLD-1 Bax-Bak+/+. The class given is cell-based. The settings on record: MTT, 3 days. The method, then: as §2
Experiment [7] concerns HCT116 p53-/- colon cancer cells. The experiment is described as follows: MTT cytotoxicity assay, HCT116 p53-/-. The class given is cell-based. The method, then: as §2
In experiment [8] the test system is DLD-1 Bax-Bak-/- colon cancer cells. The experiment can be described thus: MTT cytotoxicity assay, DLD-1 Bax-Bak-/-. The class given is cell-based. How it is done:
as §2

Take `N.N.[Cl][Pt][Cl]` [Cisplatin, cisplatin]: the IC50 in experiment [1] stood at 1.26 µM; in experiment [2] it was 1.24 µM; in experiment [3] (MTT, 3 days, read-out: IC50 SGC-7901 (Gastric) (Cisplatin resistant)) it was 6.19 µM; in experiment [4], 0.19 µM; in experiment [5] (MTT, 3 days, read-out: IC50 A2780 (Ovary) (Cisplatin resistant)) it was 18.5 µM; in experiment [7] (MTT, 3 days, read-out: IC50 HCT116 p53-/- colon cancer cells) it was 17.6 µM. Moreover, the “Resistant Factor” value in experiment [3] (SGC-7901 cisplatin resistant versus cisplatin sensitive) is 4.9; in experiment [5] (A2780 cisplatin resistant versus cisplatin sensitive), 14.92; in experiment [7] (IC50 HCT116 p53-/- divided by IC50 HCT116 p53+/+), 92.37; in experiment [8] (IC50 DLD-1 Bax-Bak-/- divided by IC50 DLD-1 Bax-Bak+/+), 1.84. In addition, in experiment [6], the “IC50 DLD-1 Bax-Bak+/+ colon cancer cells” value amounted to 1.994 µg/mL. For the same molecule, in experiment [8] (MTT, 3 days), the “IC50 DLD-1 Bax-Bak-/- colon cancer cells” value came out at 3.678 µg/mL.

The record behind these values is patent publication US10322097B2, “Treatment of subjects with multidrug-resistant cancer” (priority 2015, dated 2019).
